Results: ChEMBL document CHEMBL1147434, “Synthesis and biological results of the technetium-99m-labeled 4-nitroimidazole for imaging tumor hypoxia” (Bioorg Med Chem Lett, 2004)

Experiments:
Assay type in all cases: ADME, organism-based
Mus musculus [1] = test: In vivo biodistribution of radiolabeled [99mTc]-N4IPA in mice muscle bearing S180 tumor cell line for 1 hour; details: ccrf s-180, 1 h
Mus musculus [2] = test: In vivo biodistribution of radiolabeled [99mTc]-N4IPA in mice liver bearing S180 tumor cell line for 30 minutes; details: ccrf s-180, 0.5 h
Mus musculus [3] = test: In vivo biodistribution of radiolabeled [99mTc]N4IPA in mice lung bearing S180 tumor cell line for 8 hours; details: ccrf s-180, 8 h
Mus musculus [4] = test: In vivo biodistribution of radiolabeled [99mTc]N4IPA in mice tumor/heart bearing S180 tumor cell line for 1 hour; details: ccrf s-180, 1 h
Mus musculus [5] = test: In vivo biodistribution of radiolabeled [99mTc]-N4IPA in mice blood bearing S180 tumor cell line for 30 minutes; details: ccrf s-180, 0.5 h
Mus musculus [6] = test: In vivo biodistribution of radiolabeled [99mTc]-N4IPA in mice tumor/lung bearing S180 tumor cell line for 1 hour; details: ccrf s-180, 1 h
Mus musculus [7] = test: In vivo biodistribution of radiolabeled [99mTc]-N4IPA in mice tumor/liver bearing S180 tumor cell line for 4 hours; details: ccrf s-180, 4 h
Mus musculus [8] = test: In vivo biodistribution of radiolabeled [99mTc]N4IPA in mice brain bearing S180 tumor cell line for 8 hours; details: ccrf s-180, 8 h
Mus musculus [9] = test: In vivo biodistribution of radiolabeled [99mTc]-N4IPA in mice blood bearing S180 tumor cell line for 4 hours; details: ccrf s-180, 4 h
Mus musculus [10] = test: In vivo biodistribution of radiolabeled [99mTc]N4IPA in mice tumor/muscle bearing S180 tumor cell line for 8 hours; details: ccrf s-180, 8 h
Mus musculus [11] = test: In vivo biodistribution of radiolabeled [99mTc]N4IPA in mice tumor/liver bearing S180 tumor cell line for 30 minutes; details: ccrf s-180, 0.5 h
Mus musculus [12] = test: In vivo biodistribution of radiolabeled [99mTc]-N4IPA in mice blood bearing S180 tumor cell line for 1 hour; details: ccrf s-180, 1 h
Mus musculus [13] = test: In vivo biodistribution of radiolabeled [99mTc]N4IPA in mice tumor/muscle bearing S180 tumor cell line for 30 minutes; details: ccrf s-180, 0.5 h
Mus musculus [14] = test: In vivo biodistribution of radiolabeled [99mTc]-N4IPA in mice kidney bearing S180 tumor cell line for 30 minutes; details: ccrf s-180, 0.5 h
Mus musculus [15] = test: In vivo biodistribution of radiolabeled [99mTc]N4IPA in mice kidney bearing S180 tumor cell line for 2 hours; details: ccrf s-180, 2 h
Mus musculus [16] = test: In vivo biodistribution of radiolabeled [99mTc]N4IPA in mice tumor/blood bearing S180 tumor cell line for 8 hours; details: ccrf s-180, 8 h
Mus musculus [17] = test: In vivo biodistribution of radiolabeled [99mTc]N4IPA in mice brain bearing S180 tumor cell line for 4 hours; details: ccrf s-180, 4 h
Mus musculus [18] = test: In vivo biodistribution of radiolabeled [99mTc]-N4IPA in mice tumor bearing S180 tumor cell line for 1 hour; details: ccrf s-180, 1 h
Mus musculus [19] = test: In vivo biodistribution of radiolabeled [99mTc]N4IPA in mice kidney bearing S180 tumor cell line for 1 hour; details: ccrf s-180, 1 h
Mus musculus [20] = test: In vivo biodistribution of radiolabeled [99mTc]-N4IPA in mice kidney bearing S180 tumor cell line for 8 hours; details: ccrf s-180, 8 h
Mus musculus [21] = test: In vivo biodistribution of radiolabeled [99mTc]-N4IPA in mice tumor bearing S180 tumor cell line for 4 hours; details: ccrf s-180, 4 h
Mus musculus [22] = test: In vivo biodistribution of radiolabeled [99mTc]-N4IPA in mice tumor/muscle bearing S180 tumor cell line for 2 hours; details: ccrf s-180, 2 h
Mus musculus [23] = test: In vivo biodistribution of radiolabeled [99mTc]N4IPA in mice brain bearing S180 tumor cell line for 2 hours; details: ccrf s-180, 2 h
Mus musculus [24] = test: In vivo biodistribution of radiolabeled [99mTc]N4IPA in mice tumor/liver bearing S180 tumor cell line for 2 hours; details: ccrf s-180, 2 h
Mus musculus [25] = test: In vivo biodistribution of radiolabeled [99mTc]-N4IPA in mice lung bearing S180 tumor cell line for 2 hours; details: ccrf s-180, 2 h
Mus musculus [26] = test: In vivo biodistribution of radiolabeled [99mTc]N4IPA in mice liver bearing S180 tumor cell line for 8 hours; details: ccrf s-180, 8 h
Mus musculus [27] = test: In vivo biodistribution of radiolabeled [99mTc]-N4IPA in mice muscle bearing S180 tumor cell line for 4 hours; details: ccrf s-180, 4 h
Mus musculus [28] = test: In vivo biodistribution of radiolabeled [99mTc]-N4IPA in mice lung bearing S180 tumor cell line for 4 hours; details: ccrf s-180, 4 h
Mus musculus [29] = test: In vivo biodistribution of radiolabeled [99mTc]N4IPA in mice tumor/blood bearing S180 tumor cell line for 2 hours; details: ccrf s-180, 2 h
Mus musculus [30] = test: In vivo biodistribution of radiolabeled [99mTc]N4IPA in mice tumor bearing S180 tumor cell line for 2 hours; details: ccrf s-180, 2 h
Mus musculus [31] = test: In vivo biodistribution of radiolabeled [99mTc]N4IPA in mice liver bearing S180 tumor cell line for 1 hour; details: ccrf s-180, 1 h
Mus musculus [32] = test: In vivo biodistribution of radiolabeled [99mTc]N4IPA in mice liver bearing S180 tumor cell line for 2 hours; details: ccrf s-180, 2 h
Mus musculus [33] = test: In vivo biodistribution of radiolabeled [99mTc]N4IPA in mice tumor/blood bearing S180 tumor cell line for 4 hours; details: ccrf s-180, 4 h
Mus musculus [34] = test: In vivo biodistribution of radiolabeled [99mTc]-N4IPA in mice blood bearing S180 tumor cell line for 8 hours; details: ccrf s-180, 8 h
Mus musculus [35] = test: In vivo biodistribution of radiolabeled [99mTc]-N4IPA in mice tumor/heart bearing S180 tumor cell line for 4 hours; details: ccrf s-180, 4 h

N/C(CCn1cnc([N+](=O)[O-])c1)=N\O
Biodistribution (Mus musculus [1]): 0.11 % g-1 | Biodistribution (Mus musculus [2]): 0.98 % g-1 | Biodistribution (Mus musculus [3]): 0.1 % g-1 | Biodistribution (Mus musculus [4]): 3.22 % g-1 | Biodistribution (Mus musculus [5]): 0.7 % g-1 | Biodistribution (Mus musculus [6]): 2.06 % g-1 | Biodistribution (Mus musculus [7]): 0.88 % g-1 | Biodistribution (Mus musculus [8]): 0.04 % g-1 | Biodistribution (Mus musculus [9]): 0.18 % g-1 | Biodistribution (Mus musculus [10]): 8.83 % g-1 | Biodistribution (Mus musculus [11]): 0.56 % g-1 | Biodistribution (Mus musculus [12]): 0.28 % g-1 | Biodistribution (Mus musculus [13]): 3.66 % g-1 | Biodistribution (Mus musculus [14]): 5.63 % g-1 | Biodistribution (Mus musculus [15]): 3.8 % g-1 | Biodistribution (Mus musculus [16]): 2.06 % g-1 | Biodistribution (Mus musculus [17]): 0.04 % g-1 | Biodistribution (Mus musculus [18]): 0.45 % g-1 | Biodistribution (Mus musculus [19]): 5.44 % g-1 | Biodistribution (Mus musculus [20]): 2.26 % g-1 | Biodistribution (Mus musculus [21]): 0.34 % g-1 | Biodistribution (Mus musculus [22]): 8.12 % g-1 | Biodistribution (Mus musculus [23]): 0.04 % g-1 | Biodistribution (Mus musculus [24]): 0.85 % g-1 | Biodistribution (Mus musculus [25]): 0.17 % g-1 | Biodistribution (Mus musculus [26]): 0.23 % g-1 | Biodistribution (Mus musculus [27]): 0.04 % g-1 | Biodistribution (Mus musculus [28]): 0.12 % g-1 | Biodistribution (Mus musculus [29]): 1.81 % g-1 | Biodistribution (Mus musculus [30]): 0.39 % g-1 | Biodistribution (Mus musculus [31]): 0.79 % g-1 | Biodistribution (Mus musculus [32]): 0.46 % g-1 | Biodistribution (Mus musculus [33]): 1.88 % g-1 | Biodistribution (Mus musculus [34]): 0.15 % g-1 | Biodistribution (Mus musculus [35]): 4.47 % g-1
